Experimental data taken from patent US6803357B1, “Method of regulating glucose metabolism, and reagents related thereto” (New England Medical Center Hospitals, Inc., priority 1999, dated 2004).

Legend:
blood glucose levels = test: oral glucose tolerance test (oral glucose challenge) in mice; format: in vivo; conditions: for glucose levels in blood / glucose control after a single injection: acute, single injection before oral glucose tolerance test; for blood sugar levels / glycemic excursion to oral glucose challenge, chronic treatment: injected twice daily for four days, then oral glucose challenge; for response to a sub-therapeutic dose of GLP-1: single injection, 8 μg GLP-1 five minutes prior to glucose
Procedure: The first two experiments are “acute” experiments wherein the mice were injected with a single dose of Pro-boro-pro. In the first set of experiments mice were injected with 150 μg of Pro-boro-pro (PBP-1) and then subjected to an oral glucose tolerance test within an hour. […] In a second set of experiments mice were injected with Pro-boro-pro (PBP-2) one hour prior to an oral glucose challenge test. FIG. 3 presents the results of these experiments. Each set of experiments was also performed using saline as a control.
The third set of experiments were “chronic” experiments, wherein the mice were injected twice daily with Pro-boro-pro for four days, followed by an oral glucose challenge.

DP-IV = test: inhibition of / affinity for DP-IV; format: biochemical
Procedure: As an illustrative embodiment, the ability of a test agent to inhibit DPIV can be assessed using a calorimetric or fluorometric substrate, such as Ala-Pro-paranitroanilide. […] Moreover, DPIV can be purified, and is accordingly readily amenable for use in such high throughput formats as multi-well plates.
An illustrative reaction mixture includes […] (pH7.8), 10 μM Ala-Pro-paranitroanilide, 6 milliunits of DPIV, and 2% (v/v) dimethylformamide in a total volume of 1.0 mL. The reaction is initiated by addition of enzyme, and formation of reaction product (paranitroanilide) in the presence and absence of a test compound can be detected photometrically, e.g., at 410 nm.

## O=C(C1CCCN1)N1CCCC1B(O)O (centres unmarked) [Pro-boro-pro]
Blood glucose levels; chronic (>5 days) treatment alone
  fasting blood sugars, chronic treatment: lowers
Blood glucose levels; mice
  glucose levels in blood / glucose control after a single injection: alone sufficient to improve glucose control
  blood sugar levels / glycemic excursion to oral glucose challenge, chronic treatment: lowers
  response to a sub-therapeutic dose of GLP-1: potentiate the response
Blood glucose levels; mice, listed as PBP-1
  glucose levels in blood / glucose control after a single injection: improves glucose levels in blood
  response to a sub-therapeutic dose of GLP-1: potentiates the response
Blood glucose levels; mice, listed as PBP-2
  glucose levels in blood / glucose control after a single injection: improves glucose levels in blood
Blood glucose levels; mice, listed as PBP-3
  blood sugar levels / glycemic excursion to oral glucose challenge, chronic treatment: lowering of the blood sugar levels
Blood glucose levels; mice, overall statement on the experiments
  blood sugar, oral glucose challenge: clearly lowers blood sugar

## CC(NC(=O)OC(C)(C)C)C(=O)N1CCCC1B(O)O (stereo not drawn) [Boc-blocked Ala-boroPro, Boc-Ala-boroPro]
DP-IV
  affinity for DP-IV: no affinity

## L-Ala-L-boroPro-pinacol [early fraction]
DP-IV; at equal concentrations, silica gel fractions of Ala-boroPro-pinacol
  extent of DP-IV inhibition compared with later fractions: inhibits DP-IV to a greater extent than later fractions
